# From US10335503B2, “Compound that specifically binds to AMPA receptor” (Public University Corporation Yokohama City University, priority 2015, dated 2019)
# *1 amine or outer side, *2 acyl side, *3 side chain or, on linkers, in order; H or OH if unused. Where a SMILES comes first, the peptide text is derived from it. Where no end group is shown, it is not given here. [ ]: non-standard residue; d: D form. NMeF = CN[C@@H](Cc1ccccc1)C(=O)O; Suc = O=C(CCC(=O)[*:2])[*:1]
# Assays:
# Conditions in all cases: Positive substance, concentration not given
# Nicotinic = assay: Receptor binding panel: Nicotinic; set-up: species or system Human
# Neurokinin NK1 = Neurokinin NK1 (Homo sapiens, UniProt P25103); assay: Receptor binding panel: Neurokinin NK1
# Neurokinin NK1, sequence (P25103 whole entry): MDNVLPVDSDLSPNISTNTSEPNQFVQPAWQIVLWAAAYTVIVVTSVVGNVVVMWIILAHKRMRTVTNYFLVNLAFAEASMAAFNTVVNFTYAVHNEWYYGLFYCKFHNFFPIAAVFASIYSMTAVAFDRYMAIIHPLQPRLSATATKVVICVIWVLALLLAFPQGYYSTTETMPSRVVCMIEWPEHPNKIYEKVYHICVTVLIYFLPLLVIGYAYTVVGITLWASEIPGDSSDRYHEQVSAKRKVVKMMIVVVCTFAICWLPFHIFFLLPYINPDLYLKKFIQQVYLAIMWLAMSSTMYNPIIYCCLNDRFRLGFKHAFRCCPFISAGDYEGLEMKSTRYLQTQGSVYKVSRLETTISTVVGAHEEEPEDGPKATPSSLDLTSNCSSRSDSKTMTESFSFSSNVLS
# Sigma σ1 = Sigma σ1 (Homo sapiens, UniProt Q99720); assay: Receptor binding panel: Sigma σ1
# Sigma σ1, sequence (Q99720 whole entry): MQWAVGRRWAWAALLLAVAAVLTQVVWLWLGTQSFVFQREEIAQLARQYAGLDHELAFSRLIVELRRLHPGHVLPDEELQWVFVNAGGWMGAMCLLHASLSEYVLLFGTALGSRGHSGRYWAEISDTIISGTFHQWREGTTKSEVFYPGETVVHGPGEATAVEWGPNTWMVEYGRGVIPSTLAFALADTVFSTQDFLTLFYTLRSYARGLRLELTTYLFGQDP
# Histamine H3 = Histamine H3 (Homo sapiens, UniProt Q9Y5N1); assay: Receptor binding panel: Histamine H3
# Histamine H3, sequence (Q9Y5N1 whole entry): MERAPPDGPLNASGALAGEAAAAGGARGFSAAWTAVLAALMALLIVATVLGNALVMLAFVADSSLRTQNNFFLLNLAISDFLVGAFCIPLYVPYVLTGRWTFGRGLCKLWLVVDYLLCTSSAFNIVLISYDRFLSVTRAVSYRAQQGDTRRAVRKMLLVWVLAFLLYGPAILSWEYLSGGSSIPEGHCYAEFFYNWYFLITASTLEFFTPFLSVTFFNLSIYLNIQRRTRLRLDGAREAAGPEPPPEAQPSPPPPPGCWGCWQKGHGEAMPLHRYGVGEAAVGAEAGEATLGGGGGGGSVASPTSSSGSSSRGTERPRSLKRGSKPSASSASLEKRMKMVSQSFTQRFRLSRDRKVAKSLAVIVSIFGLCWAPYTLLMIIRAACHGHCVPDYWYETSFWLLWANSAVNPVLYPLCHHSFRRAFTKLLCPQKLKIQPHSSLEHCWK
# Glutamate (AMPA) = assay: Receptor binding panel: Glutamate (AMPA)
# Histamine H2 = Histamine H2 (Homo sapiens, UniProt P25021); assay: Receptor binding panel: Histamine H2
# Histamine H2, sequence (P25021 whole entry): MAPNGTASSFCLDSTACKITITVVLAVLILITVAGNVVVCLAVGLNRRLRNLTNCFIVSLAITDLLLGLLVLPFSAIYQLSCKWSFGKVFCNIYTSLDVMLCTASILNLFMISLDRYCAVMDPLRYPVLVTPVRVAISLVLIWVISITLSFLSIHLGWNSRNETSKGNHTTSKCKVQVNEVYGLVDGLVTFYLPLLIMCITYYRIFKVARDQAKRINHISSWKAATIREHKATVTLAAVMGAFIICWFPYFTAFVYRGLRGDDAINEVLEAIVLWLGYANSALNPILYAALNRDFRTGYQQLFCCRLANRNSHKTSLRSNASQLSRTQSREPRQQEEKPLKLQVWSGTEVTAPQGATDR
# GABA A (BZ central) = assay: Receptor binding panel: GABA A (BZ central)
# Na channel site 2 = assay: Receptor binding panel: Na channel site 2
# K Channel KATP = assay: Receptor binding panel: K Channel KATP
# Sigma σ2 = Sigma σ2 (Homo sapiens, UniProt Q5BJF2); assay: Receptor binding panel: Sigma σ2
# Sigma σ2, sequence (Q5BJF2 whole entry): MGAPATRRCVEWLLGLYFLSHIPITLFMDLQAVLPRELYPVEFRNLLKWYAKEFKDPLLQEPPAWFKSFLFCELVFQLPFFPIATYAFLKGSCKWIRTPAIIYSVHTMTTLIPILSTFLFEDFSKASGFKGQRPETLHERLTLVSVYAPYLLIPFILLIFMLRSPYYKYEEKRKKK
# Serotonin transporter = Serotonin transporter (Homo sapiens, UniProt P31645); assay: Receptor binding panel: Serotonin transporter
# Serotonin transporter, sequence (P31645 whole entry): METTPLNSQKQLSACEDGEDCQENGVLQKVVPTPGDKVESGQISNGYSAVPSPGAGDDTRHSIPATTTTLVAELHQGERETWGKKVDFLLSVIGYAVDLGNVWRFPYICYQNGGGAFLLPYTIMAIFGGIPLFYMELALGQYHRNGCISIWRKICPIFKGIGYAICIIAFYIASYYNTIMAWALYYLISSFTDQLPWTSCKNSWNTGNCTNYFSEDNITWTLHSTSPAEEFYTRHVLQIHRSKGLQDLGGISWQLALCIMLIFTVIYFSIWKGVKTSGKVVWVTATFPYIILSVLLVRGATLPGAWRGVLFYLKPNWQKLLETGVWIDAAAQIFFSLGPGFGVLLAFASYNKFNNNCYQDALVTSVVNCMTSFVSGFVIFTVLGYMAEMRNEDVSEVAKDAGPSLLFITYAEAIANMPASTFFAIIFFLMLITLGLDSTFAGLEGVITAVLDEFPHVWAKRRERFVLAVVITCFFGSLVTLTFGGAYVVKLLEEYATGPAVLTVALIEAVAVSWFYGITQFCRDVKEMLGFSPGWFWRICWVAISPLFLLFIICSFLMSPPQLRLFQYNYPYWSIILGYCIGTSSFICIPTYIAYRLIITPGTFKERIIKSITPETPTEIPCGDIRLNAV
# Glutamate (Kainate) = assay: Receptor binding panel: Glutamate (Kainate)
# Serotonin 5HT2A = Serotonin 5HT2A (Homo sapiens, UniProt P28223); assay: Receptor binding panel: Serotonin 5HT2A
# [1] = system: Glutamate (NMDA agonist site); assay: Receptor binding panel: Glutamate (NMDA agonist site)
# Leukotriene B4 = assay: Receptor binding panel: Leukotriene B4
# Leukotriene D4 = assay: Receptor binding panel: Leukotriene D4
# [2] = system: Glutamate (NMDA glycine site); assay: Receptor binding panel: Glutamate (NMDA glycine site)
# Melatonin MT1 = Melatonin MT1 (Homo sapiens, UniProt P48039); assay: Receptor binding panel: Melatonin MT1
# Melatonin MT1, sequence (P48039 whole entry): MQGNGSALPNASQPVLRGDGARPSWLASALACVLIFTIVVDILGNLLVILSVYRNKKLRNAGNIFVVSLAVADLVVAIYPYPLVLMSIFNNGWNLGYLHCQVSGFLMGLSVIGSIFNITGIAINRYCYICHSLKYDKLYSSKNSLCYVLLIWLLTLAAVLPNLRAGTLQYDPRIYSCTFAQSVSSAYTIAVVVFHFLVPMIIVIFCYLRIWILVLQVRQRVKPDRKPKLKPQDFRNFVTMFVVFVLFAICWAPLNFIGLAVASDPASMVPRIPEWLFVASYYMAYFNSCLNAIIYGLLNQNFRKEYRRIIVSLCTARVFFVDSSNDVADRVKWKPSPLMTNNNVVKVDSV
# GABA A (Agonist site) = assay: Receptor binding panel: GABA A (Agonist site)
# Opiate δ = Opiate δ (Homo sapiens, UniProt P41143); assay: Receptor binding panel: Opiate δ
# Opiate δ, sequence (P41143 whole entry): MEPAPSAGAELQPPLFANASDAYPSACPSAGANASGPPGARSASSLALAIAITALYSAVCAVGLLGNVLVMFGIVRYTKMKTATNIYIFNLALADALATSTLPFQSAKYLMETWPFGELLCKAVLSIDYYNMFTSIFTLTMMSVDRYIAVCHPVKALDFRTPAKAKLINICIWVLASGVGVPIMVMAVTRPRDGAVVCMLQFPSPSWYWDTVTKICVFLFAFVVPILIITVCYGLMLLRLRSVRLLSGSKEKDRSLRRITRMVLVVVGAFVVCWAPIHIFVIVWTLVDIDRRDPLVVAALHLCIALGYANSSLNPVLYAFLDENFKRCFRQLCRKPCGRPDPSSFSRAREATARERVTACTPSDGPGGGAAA
# α2A-Adrenergic = α2A-Adrenergic (Homo sapiens, UniProt P08913); assay: Receptor binding panel: α2A-Adrenergic
# α2A-Adrenergic, sequence (P08913 whole entry): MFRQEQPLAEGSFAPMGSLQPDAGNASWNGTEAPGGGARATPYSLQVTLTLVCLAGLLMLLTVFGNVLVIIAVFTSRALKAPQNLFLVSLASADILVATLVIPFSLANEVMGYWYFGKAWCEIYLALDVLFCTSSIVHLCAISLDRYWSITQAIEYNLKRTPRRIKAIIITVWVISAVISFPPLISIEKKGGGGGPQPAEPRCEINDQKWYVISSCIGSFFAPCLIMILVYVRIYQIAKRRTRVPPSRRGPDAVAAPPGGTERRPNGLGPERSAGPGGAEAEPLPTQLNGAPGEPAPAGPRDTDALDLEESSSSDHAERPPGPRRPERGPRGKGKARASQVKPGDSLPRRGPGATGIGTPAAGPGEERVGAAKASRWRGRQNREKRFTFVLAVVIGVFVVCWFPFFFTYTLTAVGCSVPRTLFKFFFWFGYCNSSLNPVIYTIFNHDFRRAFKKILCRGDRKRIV
# α2C-Adrenergic = α2C-Adrenergic (Homo sapiens, UniProt P18825); assay: Receptor binding panel: α2C-Adrenergic
# Neurokinin NK3 = Neurokinin NK3 (Homo sapiens, UniProt P29371); assay: Receptor binding panel: Neurokinin NK3
# Neurokinin NK3, sequence (P29371 whole entry): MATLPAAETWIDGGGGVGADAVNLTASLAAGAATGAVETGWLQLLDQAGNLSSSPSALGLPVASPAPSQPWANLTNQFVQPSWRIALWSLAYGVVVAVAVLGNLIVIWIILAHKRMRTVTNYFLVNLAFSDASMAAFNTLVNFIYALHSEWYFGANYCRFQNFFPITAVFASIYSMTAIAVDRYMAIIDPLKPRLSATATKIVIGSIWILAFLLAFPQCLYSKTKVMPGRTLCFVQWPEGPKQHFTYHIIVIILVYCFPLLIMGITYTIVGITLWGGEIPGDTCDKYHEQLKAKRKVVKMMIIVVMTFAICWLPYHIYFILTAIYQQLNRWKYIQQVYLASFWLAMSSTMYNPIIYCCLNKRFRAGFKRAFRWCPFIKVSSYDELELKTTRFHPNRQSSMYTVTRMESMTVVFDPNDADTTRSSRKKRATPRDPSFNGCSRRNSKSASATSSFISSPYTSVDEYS
# Serotonin 5HT3 = Serotonin 5HT3 (Homo sapiens, UniProt P46098); assay: Receptor binding panel: Serotonin 5HT3
# Serotonin 5HT3, sequence (P46098 24-478): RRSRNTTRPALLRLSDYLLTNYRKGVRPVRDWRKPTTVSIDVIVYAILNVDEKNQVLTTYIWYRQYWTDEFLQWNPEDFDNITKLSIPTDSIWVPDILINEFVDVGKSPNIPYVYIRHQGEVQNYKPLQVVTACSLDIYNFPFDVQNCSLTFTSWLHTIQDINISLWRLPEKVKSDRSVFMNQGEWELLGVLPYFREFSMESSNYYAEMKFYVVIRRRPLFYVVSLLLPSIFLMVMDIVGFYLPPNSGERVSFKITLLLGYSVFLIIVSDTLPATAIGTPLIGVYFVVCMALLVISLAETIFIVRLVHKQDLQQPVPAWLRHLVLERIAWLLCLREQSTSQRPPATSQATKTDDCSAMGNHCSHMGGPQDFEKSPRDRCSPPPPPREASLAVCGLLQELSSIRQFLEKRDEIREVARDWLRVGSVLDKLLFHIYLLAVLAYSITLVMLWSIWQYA
# Estrogen = assay: Receptor binding panel: Estrogen
# Dopamine D2 short = Dopamine D2 short (Homo sapiens, UniProt P14416); assay: Receptor binding panel: Dopamine D2 short
# Dopamine D2 short, sequence (P14416 1-414 isoform P14416-2): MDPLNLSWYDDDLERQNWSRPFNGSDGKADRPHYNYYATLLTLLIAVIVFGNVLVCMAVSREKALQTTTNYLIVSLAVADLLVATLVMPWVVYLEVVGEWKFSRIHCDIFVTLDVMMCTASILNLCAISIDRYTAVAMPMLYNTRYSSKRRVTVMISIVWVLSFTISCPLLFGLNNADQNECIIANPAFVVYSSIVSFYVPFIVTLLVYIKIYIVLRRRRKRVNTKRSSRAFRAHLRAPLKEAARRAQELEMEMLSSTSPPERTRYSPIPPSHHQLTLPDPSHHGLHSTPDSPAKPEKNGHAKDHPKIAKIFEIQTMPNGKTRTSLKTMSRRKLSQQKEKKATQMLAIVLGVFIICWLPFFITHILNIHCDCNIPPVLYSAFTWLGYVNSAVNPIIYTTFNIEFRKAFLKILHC
# [3] = system: Glutamate (NMDA phencyclidine site); assay: Receptor binding panel: Glutamate (NMDA phencyclidine site)
# CRF1 = target: T1, CRF1 (Homo sapiens, UniProt P34998); assay: Receptor binding panel: CRF1
# T1 sequence (P34998 24-415): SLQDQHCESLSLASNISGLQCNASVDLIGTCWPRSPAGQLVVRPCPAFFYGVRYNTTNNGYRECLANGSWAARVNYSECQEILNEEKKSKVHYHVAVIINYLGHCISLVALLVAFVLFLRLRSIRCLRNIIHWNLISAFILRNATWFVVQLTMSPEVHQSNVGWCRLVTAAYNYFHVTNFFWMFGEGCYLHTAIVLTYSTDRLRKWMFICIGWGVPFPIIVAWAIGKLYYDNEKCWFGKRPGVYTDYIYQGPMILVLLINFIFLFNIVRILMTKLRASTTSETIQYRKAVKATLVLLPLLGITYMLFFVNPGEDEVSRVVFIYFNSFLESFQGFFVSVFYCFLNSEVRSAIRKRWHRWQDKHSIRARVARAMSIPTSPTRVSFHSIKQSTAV
molecule,measurement,setting,value
"Clc1ccc(C2CC3CCC2N3)cn1 (racemic) [(±)-Epibatidine, reference compound]",Inhibition (%),Nicotinic,98.46%
"Ic1ccccc1CN[C@@H]1C2CCN(CC2)[C@@H]1C(c1ccccc1)c1ccccc1 (racemic) [L-703,606, reference compound]",Inhibition (%),Neurokinin NK1,94.45%
"CC(C)=CCN1CCC2(C)c3cc(O)ccc3CC1C2C (single isomer, unassigned; (+)) [(+)-Pentazocine, reference compound]",Inhibition (%),Sigma σ1,100.00%
"C[C@@H](N)Cc1c[nH]cn1 [(R)(−)-α-Methyl histamine, reference compound]",Inhibition (%),Histamine H3,98.17%
"Cc1onc(O)c1C[C@H](N)C(=O)O [(S)-AMPA, reference compound]",Inhibition (%),Glutamate (AMPA),100.00%
"CN/C(=N/CCSCc1nc[nH]c1C)NC#N [Cimetidine, reference compound]",Inhibition (%),Histamine H2,100.00%
"CN1C(=O)CN=C(c2ccccc2)c2cc(Cl)ccc21 [Diazepam, reference compound]",Inhibition (%),GABA A (BZ central),100.00%
"CCCCOc1cc(C(=O)NCCN(CC)CC)c2ccccc2n1 [Dibucaine, reference compound]",Inhibition (%),Na channel site 2,97.37%
"COc1ccc(Cl)cc1C(=O)NCCc1ccc(S(=O)(=O)NC(=O)NC2CCCCC2)cc1 [Glybenclamide, reference compound]",Inhibition (%),K Channel KATP,100.00%
"O=C(CCCN1CCC(O)(c2ccc(Cl)cc2)CC1)c1ccc(F)cc1 [Haloperidol, reference compound]",Inhibition (%),Sigma σ2,100.00%
"CN(C)CCCN1c2ccccc2CCc2ccccc21 [Imipramine, reference compound]",Inhibition (%),Serotonin transporter,100.00%
"C=C(C)[C@H]1CN[C@H](C(=O)O)[C@H]1CC(=O)O [Kainic acid, reference compound]",Inhibition (%),Glutamate (Kainate),100.00%
"O=C(c1ccc(F)cc1)C1CCN(CCn2c(=O)[nH]c3ccccc3c2=O)CC1 [Ketanserin, reference compound]",Inhibition (%),Serotonin 5HT2A,99.20%
"N[C@@H](CCC(=O)O)C(=O)O [L-Glutamic acid, reference compound]",Inhibition (%),[1],100.00%
"CCCCC/C=C\C[C@@H](O)/C=C/C=C/C=C\[C@@H](O)CCCC(=O)O [Leukotriene B4, reference compound]",Inhibition (%),Leukotriene B4,98.89%
"CCCCC/C=C\C\C=C/C=C/C=C/[C@@H](SC[C@H](N)C(=O)NCC(=O)O)[C@@H](O)CCCC(=O)O [Leukotriene D4, reference compound]",Inhibition (%),Leukotriene D4,100.00%
"O=C(O)/C(=C/c1c(C(=O)O)[nH]c2cc(Cl)cc(Cl)c12)c1ccccc1 [MDL105,519, reference compound]",Inhibition (%),[2],100.00%
"COc1ccc2[nH]cc(CCNC(C)=O)c2c1 [Melatonin, reference compound]",Inhibition (%),Melatonin MT1,100.00%
"NCc1cc(=O)[nH]o1 [Muscimol, reference compound]",Inhibition (%),GABA A (Agonist site),97.63%
"Oc1ccc2c3c1O[C@H]1c4oc5ccccc5c4C[C@@]4(O)[C@@H](C2)N(CC2CC2)CC[C@]314 [Naltriben, reference compound]",Inhibition (%),Opiate δ,98.32%
"COC(=O)[C@H]1[C@H]2C[C@H]3c4[nH]c5ccccc5c4CCN3C[C@H]2CC[C@@H]1O [Rauwolscine, reference compound]",Inhibition (%),α2A-Adrenergic,100.00%
same,Inhibition (%),α2C-Adrenergic,100.00%
"CSCC[C@H](NC(=O)[C@H](CC(C)C)NC(=O)CNC(=O)[C@H](Cc1ccccc1)N(C)C(=O)[C@H](Cc1ccccc1)NC(=O)[C@H](CC(=O)O)NC(=O)CCC(=O)O)C(N)=O [Senktide, reference compound] (Suc-DF[NMeF]GLM-NH2)",Inhibition (%),Neurokinin NK3,98.43%
"CN1[C@@H]2CC[C@H]1C[C@@H](OC(=O)c1c[nH]c3ccccc13)C2 [Tropisetron, reference compound]",Inhibition (%),Serotonin 5HT3,99.80%
"C[C@]12CC[C@@H]3c4ccc(O)cc4CC[C@H]3[C@@H]1CC[C@@H]2O [β-Estradiol, reference compound]",Inhibition (%),Estrogen,100.00%
(+)-Butaclamol [reference compound],Inhibition (%),Dopamine D2 short,100.00%
(+)-MK-801 [reference compound],Inhibition (%),[3],100.00%
"Urocortin human (DNPSLSIDLTFHLLRTLLELARTQSQRERAEQNRIIFDSV; ends and bridges not checked; UniProt P55089 83-122, looked up) [reference compound]",Inhibition (%),CRF1,100.00%
